From patent publication US6294542A, “Pyrimidinone compounds, pharmaceutical compositions containing the compounds and the process for preparing the same” (Boryung Pharmaceutical Co. Ltd., priority 1998, dated 2001)

Experiments:
[1] = system: Angiotensin II-induced pressor response; test: In vivo Angiotensin II antagonism in conscious normotensive rats; conditions: Rattus norvegicus, po; P.O.; conscious normotensive male SD rats; Angiotensin II 0.1 μg/kg; read-out: ID50 (dose of test compound necessary to produce 50% inhibition of Angiotensin II-induced pressor response)
Protocol: The antagonistic activity of the compound (I) against the angiotensin II, which is prepared by the process according to a preferred embodiment of the invention, was evaluated with relation to rats.
In vivo Angiotensin II antagonism in conscious normotensive rats.
Male SD rats (Charles River Japan, 9 weeks, 300-350 g) were anesthetized with pentobarbital at 50 mg/kg i.p. Both the left femoral artery and the right femoral vein were cannulated. A heparin-filled catheter (50U/ml) was tunneled subcutaneously (s.c.) to the dorsal side of the neck and exteriorized.
Rats were permitted to recover overnight from anesthesia and allowed free access to water, but food was withheld.
The next day, the femoral artery catheter was connected to a pressure transducer (COBE 041-500-508, USA) coupled to a polygraph (GRASS Model 7, USA) to monitor arterial blood pressure. After an appropriate equilibration period, Angiotensin II (0.1 μg/kg) was injected in the femoral vein three times during the control period.
Test compounds were then administered orally (p.o.) at a constant volume of 2 ml/kg.
Angiotensin II challenges were repeated at set times thereafter.
ID50 values, the dose of test compound necessary to produce 50% inhibition of Angiotensin II-induced pressor response, were calculated from peak inhibition percentage with several doses of test compound.

[2] = Acute Toxicity Test (oral, mice); type: in vivo; conditions: for LD50: mouse, in vivo, po
Protocol: Respective 5 mice of ICR system, which was distributed from Korean Laboratory Animal Center, were bred in a polycarbonate breeding box at a breeding environment of 23±1° C. of temperature, 55±5% of humidity, 10-15 times/hr of evacuation, 12 hr cycle of fluorescent light luminance, and 150-300 Lux of illumination.
After observing the mice for one week of acclimation breeding period, only normal mice were selected for laboratory work. The mice were fed with sterilized feed for laboratory animals, which was made by Cheil Jedang Co.,Ltd, and supplied with purified water to drink.
During the acclimation period, mice, who were evaluated to be healthy, were weighed and divided into groups randomly. Individual identification of laboratory animals was performed by indumentum pigment display and tag display per breeding box.
Establishment of dose was carried out according to a result of preliminary test in such a manner that a maximum dose group for both male and female was set to 5000 mg/kg and azeotropy was set to 1.71. Medium-high, medium and medium-low dose groups were respectively set as follows and a control group was administrated with physiological saline for injection.
Before administration of testing substances, body weight of the laboratory animals was in the range of 24-28 g in case of male and in the range of 19-28 g in case of female, respectively. The laboratory animals were aged 6 weeks.
Preparation of the testing substances was dissolved in physiological saline before administration. Dose was calculated according to the body weight which was measured before administration and dispensed by oral administration to a mouse who was in abrosia for 18 hours before testing.
Observation of clinical symptom such as general change, toxic symptom and mortality was performed for all laboratory animals once an hour during 6 hours after administration on the very administration day, and once a day from the next day to 14th day of administration.
Administration group, who was administered with testing substances, and the control group were weighed on the administration day, first, third, seventh, tenth and fourteenth days from the administration at a predetermined time for all animals who were alive.
After finish of the test, all animals were slightly anesthetized with ether and bleeding-killed. Appearance and internal organs of the animals were examined with naked eye carefully. Animals, who died during the text, were examined in the same manner.

With `CCCCc1nc(C)c(CC(=S)N2CCCC2)c(=O)n1Cc1ccc(-c2ccccc2-c2nnn[nH]2)cc1` [Compound 8, 2-n-butyl-5-pyrrolidinothiocarbonylmethyl-6-methyl-3-[[2'-(1H-tetrazol-5-yl)-biphenyl-4-yl]methyl]-pyrimidine-4(3H)-one] as the compound, how does the ED50 [1] read?
Its ED50 is 0.93 mg/kg.

What about the “Final mortality (death number/total number)” value ([2]; female, 1000 mg/kg oral) of the same compound?
Its value is 0/5.

What about the “Mortality (death number/survival number)” value ([2]; female, 1000 mg/kg oral, day 0) of the same compound?
Its value is 0/5.

And the “Mortality (death number/survival number)” value ([2]; female, 1000 mg/kg oral, day 1)?
The value was 0/5.

What about the “Mortality (death number/survival number)” value ([2]; female, 1000 mg/kg oral, day 2) of the same compound?
Its value is 0/5.

And the “Mortality (death number/survival number)” value ([2]; female, 1000 mg/kg oral, day 3)?
The value was 0/5.

What about the “Mortality (death number/survival number)” value ([2]; female, 1000 mg/kg oral, day 7) of the same compound?
The value was 0/5.

What about the “Mortality (death number/survival number)” value ([2]; female, 1000 mg/kg oral, day 14) of the same compound?
Its value is 0/5.

And the “Final mortality (death number/total number)” value ([2]; female, 1710 mg/kg oral)?
The value was 0/5.

And the “Mortality (death number/survival number)” value ([2]; female, 1710 mg/kg oral, day 0)?
Its value is 0/5.

What about the “Mortality (death number/survival number)” value ([2]; female, 1710 mg/kg oral, day 1) of the same compound?
Its value is 0/5.

And the “Mortality (death number/survival number)” value ([2]; female, 1710 mg/kg oral, day 2)?
The value was 0/5.

What about the “Mortality (death number/survival number)” value ([2]; female, 1710 mg/kg oral, day 3) of the same compound?
The value was 0/5.

What about the “Mortality (death number/survival number)” value ([2]; female, 1710 mg/kg oral, day 7) of the same compound?
The value was 0/5.

What about the “Mortality (death number/survival number)” value ([2]; female, 1710 mg/kg oral, day 14) of the same compound?
The value was 0/5.

What about the “Final mortality (death number/total number)” value ([2]; female, 2924 mg/kg oral) of the same compound?
The value was 2/5.

And the “Mortality (death number/survival number)” value ([2]; female, 2924 mg/kg oral, day 0)?
Its value is 2/5.

And the “Mortality (death number/survival number)” value ([2]; female, 2924 mg/kg oral, day 1)?
Its value is 0/3.

What about the “Mortality (death number/survival number)” value ([2]; female, 2924 mg/kg oral, day 2) of the same compound?
The value was 0/3.

What about the “Mortality (death number/survival number)” value ([2]; female, 2924 mg/kg oral, day 3) of the same compound?
The value was 0/3.

And the “Mortality (death number/survival number)” value ([2]; female, 2924 mg/kg oral, day 7)?
The value was 0/3.

And the “Mortality (death number/survival number)” value ([2]; female, 2924 mg/kg oral, day 14)?
The value was 0/3.

And the “Final mortality (death number/total number)” value ([2]; female, 5000 mg/kg oral)?
The value was 4/5.

What about the “Mortality (death number/survival number)” value ([2]; female, 5000 mg/kg oral, day 0) of the same compound?
Its value is 4/5.

And the “Mortality (death number/survival number)” value ([2]; female, 5000 mg/kg oral, day 1)?
The value was 0/1.

What about the “Mortality (death number/survival number)” value ([2]; female, 5000 mg/kg oral, day 2) of the same compound?
The value was 0/1.

And the “Mortality (death number/survival number)” value ([2]; female, 5000 mg/kg oral, day 3)?
Its value is 0/1.

What about the “Mortality (death number/survival number)” value ([2]; female, 5000 mg/kg oral, day 7) of the same compound?
Its value is 0/1.

And the “Mortality (death number/survival number)” value ([2]; female, 5000 mg/kg oral, day 14)?
Its value is 0/1.

And the “Final mortality (death number/total number)” value ([2]; male, 1000 mg/kg oral)?
The value was 0/5.

And the “Mortality (death number/survival number)” value ([2]; male, 1000 mg/kg oral, day 0)?
The value was 0/5.

And the “Mortality (death number/survival number)” value ([2]; male, 1000 mg/kg oral, day 1)?
Its value is 0/5.

And the “Mortality (death number/survival number)” value ([2]; male, 1000 mg/kg oral, day 2)?
Its value is 0/5.

And the “Mortality (death number/survival number)” value ([2]; male, 1000 mg/kg oral, day 3)?
Its value is 0/5.

And the “Mortality (death number/survival number)” value ([2]; male, 1000 mg/kg oral, day 7)?
The value was 0/5.

And the “Mortality (death number/survival number)” value ([2]; male, 1000 mg/kg oral, day 14)?
Its value is 0/5.

What about the “Final mortality (death number/total number)” value ([2]; male, 1710 mg/kg oral) of the same compound?
Its value is 2/5.

What about the “Mortality (death number/survival number)” value ([2]; male, 1710 mg/kg oral, day 0) of the same compound?
Its value is 2/5.

And the “Mortality (death number/survival number)” value ([2]; male, 1710 mg/kg oral, day 1)?
Its value is 0/3.

What about the “Mortality (death number/survival number)” value ([2]; male, 1710 mg/kg oral, day 2) of the same compound?
The value was 0/3.

What about the “Mortality (death number/survival number)” value ([2]; male, 1710 mg/kg oral, day 3) of the same compound?
Its value is 0/3.

And the “Mortality (death number/survival number)” value ([2]; male, 1710 mg/kg oral, day 7)?
The value was 0/3.

And the “Mortality (death number/survival number)” value ([2]; male, 1710 mg/kg oral, day 14)?
The value was 0/3.

What about the “Final mortality (death number/total number)” value ([2]; male, 2924 mg/kg oral) of the same compound?
Its value is 3/5.

And the “Mortality (death number/survival number)” value ([2]; male, 2924 mg/kg oral, day 0)?
The value was 3/5.

What about the “Mortality (death number/survival number)” value ([2]; male, 2924 mg/kg oral, day 1) of the same compound?
The value was 0/2.

And the “Mortality (death number/survival number)” value ([2]; male, 2924 mg/kg oral, day 2)?
The value was 0/2.

And the “Mortality (death number/survival number)” value ([2]; male, 2924 mg/kg oral, day 3)?
Its value is 0/2.

What about the “Mortality (death number/survival number)” value ([2]; male, 2924 mg/kg oral, day 7) of the same compound?
The value was 0/2.

What about the “Mortality (death number/survival number)” value ([2]; male, 2924 mg/kg oral, day 14) of the same compound?
Its value is 0/2.

What about the “Final mortality (death number/total number)” value ([2]; male, 5000 mg/kg oral) of the same compound?
Its value is 4/5.

What about the “Mortality (death number/survival number)” value ([2]; male, 5000 mg/kg oral, day 0) of the same compound?
The value was 2/5.

And the “Mortality (death number/survival number)” value ([2]; male, 5000 mg/kg oral, day 1)?
Its value is 1/3.

And the “Mortality (death number/survival number)” value ([2]; male, 5000 mg/kg oral, day 2)?
The value was 0/2.

And the “Mortality (death number/survival number)” value ([2]; male, 5000 mg/kg oral, day 3)?
The value was 0/2.

And the “Mortality (death number/survival number)” value ([2]; male, 5000 mg/kg oral, day 7)?
Its value is 1/2.

And the “Mortality (death number/survival number)” value ([2]; male, 5000 mg/kg oral, day 14)?
The value was 0/1.

And the LD50 ([2]; female mice)?
Its LD50 is 4060 mg/kg.

And the LD50 ([2]; male mice)?
The LD50 was 3170 mg/kg.
